Where “and” joins values, the source holds several entries; their conditions need not be identical. Equal entries are not always repeated. Where two headings read alike, the source gives them in different places. Where no end group is shown, it is not given here.
Biological target: T1, human CRHR2 (Homo sapiens, UniProt Q13324)
T1 construct: expressed in transfected cells
T1 sequence (Q13324 1-411): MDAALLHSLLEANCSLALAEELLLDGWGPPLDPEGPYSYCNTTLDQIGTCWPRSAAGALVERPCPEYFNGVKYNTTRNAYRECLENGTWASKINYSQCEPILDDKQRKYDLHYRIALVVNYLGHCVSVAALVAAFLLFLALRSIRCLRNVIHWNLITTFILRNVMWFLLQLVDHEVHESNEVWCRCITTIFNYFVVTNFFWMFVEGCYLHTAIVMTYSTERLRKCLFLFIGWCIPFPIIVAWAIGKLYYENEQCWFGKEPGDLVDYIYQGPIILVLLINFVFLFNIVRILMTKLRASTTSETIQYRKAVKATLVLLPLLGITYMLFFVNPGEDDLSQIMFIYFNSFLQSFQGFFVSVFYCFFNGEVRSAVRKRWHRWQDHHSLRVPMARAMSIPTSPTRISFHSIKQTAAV
Assay: cAMP assay, h-CRHR2 transfected SK-N-MC cells
Type: cell-based
Conditions: for EC50: read-out: pA50 (converted); for Log DR [M]: h-SCP control pA50 minus test compound pA50 within the same assay batch
In short: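 Intracellular cAMP was quantified by radioligand competition against a cAMP standard curve after HCl lysis of h-CRHR2-transfected SK-N-MC cells. These cells had been exposed to peptides from 1 pM to 1 μM for 1 h at 37 °C with IBMX. Responses were scaled to the daily h-SCP maximum and fitted to the Hill equation to give A50/pA50.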

[1] = Table 13, cysteine mutation, N-ethylmaleimide capping, pegylation

TKFCLSLDVPTNIMNLLFNIAKAKNLRAQAAANAHLMAQI-NH2 [SEQ ID NO: 5, TKFCLSLDVPTNIMNLLFNIAKAKNLRAQAAANAHLMAQI-NH2]
EC50 [1]: 1.17 nM
Log DR [M] (Table 13): 0.76

TKFTLSLDVPTNIMNLLFNIAKAKNCRAQAAANAHLMAQI-NH2 [SEQ ID NO: 27, TKFTLSLDVPTNIMNLLFNIAKAKNCRAQAAANAHLMAQI-NH2]
EC50 [1]: 1.74 nM
Log DR [M] (Table 13): 0.76

KFTLSLDVPTNIMNLLFNIAKAKNLRAQAAANAHLMAQI-NH2 [SEQ ID NO: 107, KFTLSLDVPTNIMNLLFNIAKAKNLRAQAAANAHLMAQI-NH2]
nH (Table 12): 1.07
EC50 (Table 12, amidation and N-terminal deletions, normalized to maximum response to h-SCP, 3-5 replicate experiments): 0.575 nM and 0.562 nM
αmax (Table 12, normalized to the maximum response to h-SCP): 111.3

TKFTLSLDVPTNIMNLLFNIAKAKNLRAQAAANAHLMAQC-NH2 [SEQ ID NO: 41, TKFTLSLDVPTNIMNLLFNIAKAKNLRAQAAANAHLMAQC-NH2]
EC50 [1]: 35.5 nM
Log DR [M] (Table 13): 2.07

TKFTLCLDVPTNIMNLLFNIAKAKNLRAQAAANAHLMAQI-NH2 [SEQ ID NO: 7, TKFTLCLDVPTNIMNLLFNIAKAKNLRAQAAANAHLMAQI-NH2]
EC50 [1]: 25.1 nM
Log DR [M] (Table 13): 2.08

TKFTLSLDCPTNIMNLLFNIAKAKNLRAQAAANAHLMAQI-NH2 [SEQ ID NO: 10, TKFTLSLDCPTNIMNLLFNIAKAKNLRAQAAANAHLMAQI-NH2]
EC50 [1]: 5.25 nM
Log DR [M] (Table 13): 1.30

TKFTLSLDVPTNIMNLLFNIAKAKCLRAQAAANAHLMAQI-NH2 [SEQ ID NO: 26, TKFTLSLDVPTNIMNLLFNIAKAKCLRAQAAANAHLMAQI-NH2]
EC50 [1]: 0.363 nM
Log DR [M] (Table 13): 0.08

H-TKFTLSLDVPTNIMNLLFNIAKAKNLRAQACANAHLMAQI-NH2 [SEQ ID NO: 32, TKFTLSLDVPTNIMNLLFNIAKAKNLRAQACANAHLMAQI-NH2]
EC50 [1]: 0.389 nM
Log DR [M] (Table 13): 0.11

TKFTLSLDVPTNIMNLLFNIAKAKNLRAQAAACAHLMAQI-NH2 [SEQ ID NO: 34, TKFTLSLDVPTNIMNLLFNIAKAKNLRAQAAACAHLMAQI-NH2]
EC50 [1]: ~479 nM
Log DR [M] (Table 13): >3.19
